Experimental data: PubChem BioAssay (NCI)
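Compound exposure: 48 hours, 5 concentrations, 96-well plates. The concentration for full growth arrest is given as TGI.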

Tests used:
Assay in all cases: growth of human tumour cells (NCI), 48 h
[1] = test system: OVCAR-8 ovarian
[2] = test system: KM12 colon
[3] = test system: HOP-18 NSCLC
[4] = test system: NCI-H522 lung
[5] = test system: U251 CNS
[6] = test system: DMS 114 small cell lung
[7] = test system: IGROV1 ovarian
[8] = test system: UACC-62 melanoma
[9] = test system: DLD-1 colon
[10] = test system: HCT-15 colon
[11] = test system: A498 renal
[12] = test system: CCRF-CEM leukemia
[13] = test system: COLO 205 colon
[14] = test system: EKVX NSCLC
[15] = test system: SF-539 CNS
[16] = test system: CAKI-1 renal
[17] = test system: HOP-92 NSCLC
[18] = test system: MOLT-4 leukemia
[19] = test system: SK-OV-3 ovarian
[20] = test system: SK-MEL-5 melanoma
[21] = test system: NCI-H226 lung
[22] = test system: SN12C renal
[23] = test system: KM20L2 colon
[24] = test system: NCI-H23 lung
[25] = test system: RXF 393 renal
[26] = test system: SF-268 CNS
[27] = test system: ACHN renal
[28] = test system: M19-MEL melanoma
[29] = test system: SF-295 CNS
[30] = test system: DMS 273 small cell lung
[31] = test system: LOX IMVI melanoma
[32] = test system: SNB-78 CNS
[33] = test system: OVCAR-3 ovarian
[34] = test system: 786-0 renal
[35] = test system: NCI-H460 lung
[36] = test system: SK-MEL-28 melanoma
[37] = test system: K-562 leukemia
[38] = test system: RPMI-8226 leukemia
[39] = test system: HL-60(TB) leukemia
[40] = test system: TK-10 renal
[41] = test system: HT29 colon
[42] = test system: HCC-2998 colon
[43] = test system: SW-620 colon
[44] = test system: A549 NSCLC
[45] = test system: SNB-19 CNS
[46] = test system: SK-MEL-2 melanoma
[47] = test system: SNB-75 CNS
[48] = test system: UACC-257 melanoma
[49] = test system: MALME-3M melanoma
[50] = test system: HOP-62 NSCLC
[51] = test system: UO-31 renal
[52] = test system: OVCAR-5 ovarian
[53] = test system: HCT-116 colon
[54] = test system: LXFL 529 NSCLC
[55] = test system: M14 melanoma
[56] = test system: OVCAR-4 ovarian
[57] = test system: SR leukemia

Measured: TGI

Clc1ccc(OCCSCCCCCCCCCCSCCOc2ccc(Cl)cc2)cc1
not listed: [53] | [54] | [55] | [56] | [57]
> 100 µM: all other assays above

O=C1/C(=N\O)C2CCC1C2 (configuration not stated)
not listed: [9] | [57]
> 100 µM: all other assays above

NC(N)=N/N=C/c1oc(-c2ccc(S(=O)(=O)O)o2)c(-c2ccc(S(=O)(=O)O)o2)c1[N+](=O)[O-]
not listed: [32] | [38]
> 100 µM: all other assays above
